The subject of one assay is HIV-1. Briefly: Anti HIV-1 activity (HIV-1 P24 antigen in cell cultures). It is filed as cell-based. As to conditions: 4 days after addition of the reagents. On the procedure: Test Procedure of Anti HIV-1 Activity
8 reagent solutions of different diluted concentrations and positive control solutions are added into cell cultures in 96 well plate respectively. The sample of each diluted solutions is made duplicately and a control cell sample is also is set up. 100 μl of cell sample at a concentration of 2×10^5cells/ml is inoculated into the wells containing reagent in the plate. The cells samples are cultured in a saturated humidity culture chamber (at a 5% CO2 atmosphere) at 37° C. The pathological changes of cells are observed daily.

For the next assay, the system named is HBV. Briefly: Anti-HBV activity (HBV DNA in cell lysate, spot hybridization). As to conditions: HBV DNA content of the cells, reagent solution changed every 4 days. It counts as cell-based. On the procedure:
Test Procedure for Anti-HBV Activity
Using cell culture method, the preparation of the cells to be tested (100,000 cell's/mL) is inoculated into cell culture plate in 100 μl each well and the cells are cultured 24 h at 37° C. in 5% CO2. Tests are carried out when the cells grow into a monolayer. The target compounds as well as the controls are prepared into a series of solutions of appropriate concentrations using the culture medium and are added into 96 well culture plate respectively in 4 wells per one concentration. Then the reagent solution in each well is changed into the fresh reagent solution with the same concentration every 4 days. A cell control without reagent treatment is simultaneously is set up. The observation index is based upon the pathological changes of the cells by observing the degrees of the pathological changes of the cells under microscope every 8 days. […] Cell control without drug treatment is simultaneously is set up. The reagent solution or control medium in each well is changed into the fresh reagent solution or fresh medium respectively every 4 days. After cytolysis of the cells, HBV DNA is extracted from the cell lysis solution according to the molecular cloning technical procedure. The spots of different samples are hybridized and the A values of different hybridized spots are measured using autoradiograghic technique. The HBV DNA contents in the cell control as well as in the drug treated samples are calculated using the regression equations obtained from the standard curves to obtain half effective concentration values, the results are shown in Table 1.

On to `COC1C=CC=C(C)C(=O)NC2=CC(=O)C(NCCNC(=O)c3cccnc3)=C(CC(C)CC(OC)C(O)C(C)C=C(C)C1OC(N)=O)C2=O` (stereo not shown) [GM-418, 17-(2′-nicotinamidoethylamino)-17-demethoxy geldanamycin], for which the “Activity of HIV inhibition IC50” value with HIV-1 turned out to be 0.37 µg/mL. For the same compound, the “Activity of HBV inhibition IC50” value in the assay on HBV was found to be 0.08 µg/mL. `COc1ccc(C=CC(=O)NCCNC2=C3C[C@H](C)C[C@H](OC)[C@H](O)[C@@H](C)/C=C(\C)[C@@H](OC(N)=O)[C@@H](OC)/C=C/C=C(\C)C(=O)NC(=CC2=O)C3=O)cc1OC` [GM-413, 17-(2′-(3″,4″-dimethylcaffeoyl amido)ethylamino)-17-demethoxy geldanamycin]: the “Activity of HIV inhibition IC50” value in the assay on HIV-1 was found to be 0.48 µg/mL. In addition, the “Activity of HBV inhibition IC50” value in the assay with HBV was determined as 0.32 µg/mL. For `COC1C=CC=C(C)C(=O)NC2=CC(=O)C(NCc3cccs3)=C(CC(C)CC(OC)C(O)C(C)C=C(C)C1OC(N)=O)C2=O` (stereo not shown) [GM-W50], in that order: 1.57 µg/mL and 0.64 µg/mL. For `COC1C=CC=C(C)C(=O)NC2=CC(=O)C(NN3CCN(CCO)CC3)=C(CC(C)CC(OC)C(O)C(C)C=C(C)C1OC(N)=O)C2=O` (stereo not shown) [GM-W64], in that order: 3.75 µg/mL and 8.6 µg/mL. Turning to `COC1C=CC=C(C)C(=O)NC2=CC(=O)C(NCCN3CCCCC3)=C(CC(C)CC(OC)C(O)C(C)C=C(C)C1OC(N)=O)C2=O` (stereo not shown) [GM-AEPD, 17-(2′-(1″-azacyclohexyl-1″-)ethylamino)-17-demethoxy geldanamycin], the “Activity of HIV inhibition IC50” value in the assay with HIV-1 is under 0.01 µg/mL. Besides, in the assay with HBV, the “Activity of HBV inhibition IC50” value was 0.08 µg/mL. `COC1C=CC=C(C)C(=O)NC2=CC(=O)C(NCc3ccncc3)=C(CC(C)CC(OC)C(O)C(C)C=C(C)C1OC(N)=O)C2=O` (stereo not shown) [GM-W1]: the “Activity of HIV inhibition IC50” value in the assay with HIV-1 was 36.7 µg/mL. In the assay with HBV, the “Activity of HBV inhibition IC50” value amounted to 0.69 µg/mL.

For `COC1C=CC=C(C)C(=O)NC2=CC(=O)C(NN3CCOCC3)=C(CC(C)CC(OC)C(O)C(C)C=C(C)C1OC(N)=O)C2=O` (stereo not shown) [GM-W68], the “Activity of HIV inhibition IC50” value in the assay on HIV-1 was 10.46 µg/mL. In the assay on HBV, the “Activity of HBV inhibition IC50” value is 4.6 µg/mL. As to `COC1C=CC=C(C)C(=O)NC2=CC(=O)C(NN3CCCCC3)=C(CC(C)CC(OC)C(O)C(C)C=C(C)C1OC(N)=O)C2=O` (stereo not shown) [GM-W72], the “Activity of HIV inhibition IC50” value in the assay on HIV-1 came to 6.45 µg/mL. The “Activity of HBV inhibition IC50” value in the assay with HBV was determined as 3.2 µg/mL.

`CCN1CCCC1CNC1=C2C[C@H](C)C[C@H](OC)[C@H](O)[C@@H](C)/C=C(\C)[C@@H](OC(N)=O)[C@@H](OC)/C=C/C=C(\C)C(=O)NC(=CC1=O)C2=O` (stereo partly shown) [GM-228, 17-(2″-(N-ethylpyrrolidinyl)-methylamino)-17-demethoxy geldanamycin]: the “Activity of HIV inhibition IC50” value in the assay on HIV-1 turned out to be 0.009 µg/mL. For the same compound, in the assay on HBV, the “Activity of HBV inhibition IC50, μg/ml” value was 0/01. Turning to `COC(CNC1=C2CC(C)CC(OC)C(O)C(C)C=C(C)C(OC(N)=O)C(OC)C=CC=C(C)C(=O)NC(=CC1=O)C2=O)OC` (stereo not shown) [GM-W12], the “Activity of HIV inhibition IC50” value in the assay with HIV-1 worked out at 0.46 µg/mL. Besides, the “Activity of HBV inhibition IC50” value with HBV stood at 3.2 µg/mL.

Regarding `COC1C=CC=C(C)C(=O)NC2=CC(=O)C(NCCCN(C)c3ccccc3)=C(CC(C)CC(OC)C(O)C(C)C=C(C)C1OC(N)=O)C2=O` (stereo not shown) [GM-W45], in the assay with HIV-1, the “Activity of HIV inhibition IC50” value was under 1.67 µg/mL. Also, the “Activity of HBV inhibition IC50” value in the assay with HBV is 0.32 µg/mL. For `COC1C=CC=C(C)C(=O)NC2=CC(=O)C(NCCCC(=O)OCC=C(C)CCC=C(C)CCC=C(C)C)=C(CC(C)CC(OC)C(O)C(C)C=C(C)C1OC(N)=O)C2=O` (stereo not shown) [GM-W85], in that order: 0.78 µg/mL and 0.01 µg/mL. On to `CCN(CCNC1=C2CC(C)CC(OC)C(O)C(C)C=C(C)C(OC(N)=O)C(OC)C=CC=C(C)C(=O)NC(=CC1=O)C2=O)c1cccc(C)c1` (stereo not shown) [GM-W30], for which the “Activity of HIV inhibition IC50” value in the assay with HIV-1 stood at 10.89 µg/mL. In the assay with HBV, the “Activity of HBV inhibition IC50” value was 5.6 µg/mL. In the same order, the values of `COC1C=CC=C(C)C(=O)NC2=CC(=O)C(NNC(=O)c3ccco3)=C(CC(C)CC(OC)C(O)C(C)C=C(C)C1OC(N)=O)C2=O` (stereo not shown) [GM-W83] are 3.56 µg/mL and 3.2 µg/mL. Regarding `COC1C=CC=C(C)C(=O)NC2=CC(=O)C(NCC(=N)N)=C(CC(C)CC(OC)C(O)C(C)C=C(C)C1OC(N)=O)C2=O` (stereo not shown) [GM-W24], the “Activity of HIV inhibition IC50” value with HIV-1 is 0.11 µg/mL. In addition, in the assay on HBV, the “Activity of HBV inhibition IC50” value was 0.01 µg/mL.

Turning to `COC1C=CC=C(C)C(=O)NC2=CC(=O)C(NCC3CCNCC3)=C(CC(C)CC(OC)C(O)C(C)C=C(C)C1OC(N)=O)C2=O` (stereo not shown) [GM-AMPP], in the assay on HIV-1, the “Activity of HIV inhibition IC50” value is 0.06 µg/mL. Moreover, the “Activity of HBV inhibition IC50” value in the assay on HBV worked out at 8.0 µg/mL.

For the compound `COC1C=CC=C(C)C(=O)NC2=CC(=O)C(NCCCN3CCCCC3C)=C(CC(C)CC(OC)C(O)C(C)C=C(C)C1OC(N)=O)C2=O` (stereo not shown) [GM-W47], the “Activity of HIV inhibition IC50” value in the assay with HIV-1 was 1.84 µg/mL. In the assay on HBV, the “Activity of HBV inhibition IC50” value was 3.87 µg/mL. Regarding `COC1C=CC=C(C)C(=O)NC2=CC(=O)C(NCC(O)c3ccccc3)=C(CC(C)CC(OC)C(O)C(C)C=C(C)C1OC(N)=O)C2=O` (stereo not shown) [GM-W8], the “Activity of HIV inhibition IC50” value with HIV-1 turned out to be 1.22 µg/mL. Also, in the assay on HBV, the “Activity of HBV inhibition IC50” value stood at 1.32 µg/mL. In the same order, the values of `CCN1CCC[C@H]1CNC1=C2C[C@H](C)C[C@H](OC)[C@H](O)[C@@H](C)/C=C(\C)[C@@H](OC(N)=O)[C@@H](OC)/C=C/C=C(\C)C(=O)NC(=CC1=O)C2=O` [GM-206S, 17-(2″S-2″-(N-ethylpyrrolidinyl)-methylamino)-17-demethoxy geldanamycin] are 0.01 µg/mL and 0.064 µg/mL. Turning to `COC1C=CC=C(C)C(=O)NC2=CC(=O)C(NCCOCCO)=C(CC(C)CC(OC)C(O)C(C)C=C(C)C1OC(N)=O)C2=O` (stereo not shown) [GM-W25], the “Activity of HIV inhibition IC50” value with HIV-1 was 0.43 µg/mL. In the assay with HBV, the “Activity of HBV inhibition IC50” value came to 0.32 µg/mL. `CO[C@H]1/C=C\C=C(/C)C(=O)NC2=CC(=O)C(NC[C@@H]3CCCO3)=C(C[C@@H](C)C[C@H](OC)[C@H](O)[C@@H](C)/C=C(\C)[C@@H]1OC(N)=O)C2=O` [THFM(S)-GM, 2′S-17-tetrahydrofurfurylamino-17-demethoxy geldanamycin]: the “Activity of HIV inhibition IC50” value in the assay with HIV-1 was determined as 0.06 µg/mL. The “Activity of HBV inhibition IC50” value in the assay with HBV turned out to be 0.032 µg/mL.

Regarding “17-(trans-4′-hydroxyl cyclohexylamino)-17-demethoxy geldanamycin [GM-223]”, the “Activity of HIV inhibition IC50” value in the assay with HIV-1 was 0.10 µg/mL.

For `COC1C=CC=C(C)C(=O)NC2=CC(=O)C(NCc3ccc4c(c3)OCO4)=C(CC(C)CC(OC)C(O)C(C)C=C(C)C1OC(N)=O)C2=O` (stereo not shown) [GM-217, 17-(3′,4′-(Methylenedioxy)benzylamino)-17-demethoxygeldanamycin], in the assay on HIV-1, the “Activity of HIV inhibition IC50” value came to 0.16 µg/mL. Same read-out and setting: under `CO[C@H]1/C=C/C=C(\C)C(=O)NC2=CC(=O)C(NCCc3ccc(S(N)(=O)=O)cc3)=C(C[C@H](C)C[C@H](OC)[C@H](O)[C@@H](C)/C=C(\C)[C@H]1OC(N)=O)C2=O` [GM-208, 17-(4″-aminosulfonyl)phenylethylamino-17-demethoxy geldanamycin] stands over 0.82 µg/mL; under `CO[C@H]1/C=C/C=C(\C)C(=O)NC2=CC(=O)C(NCCc3cccs3)=C(C[C@H](C)C[C@H](OC)[C@H](O)[C@@H](C)/C=C(\C)[C@H]1OC(N)=O)C2=O` [GM-221, 17-(2′-thienylethylamino)-17-demethoxy geldanamycin], 0.06 µg/mL.

Source of the values: patent US20100311694A1, “Set of Geldanamycin Derivatives and Their Preparation Methods” (Institute of Medicinal Biotechnology, Chinese Academy of …, priority 2008, published 2010).
